According to patent US8188101B2 (AstraZeneca AB, priority 2008, dated 2012):

System: Aβ42 release
Assay: Aβ release in cells stably expressing APPswe, Meso Scale Discovery electrochemiluminescence assay
Format: cell-based, Human
Settings: Homo sapiens, SH-SY5Y, HEK or SH-SY5Y cells stably expressing APPswe, 4-6 hours incubation with test compound
Experimental: The level of activity of the compounds on Aβ release was tested using the following method:
Compounds were diluted in 100% DMSO and stored at […] prior to use. Human Embryonic Kidney (HEK) or Human Neuroblastoma (SH-SY5Y) cell lines stably expressing APP with the Swedish mutation (APPswe) were cultured using Dulbecco's Modified Eagles medium (DMEM) supplied with […] glucose, Na-pyruvate and GlutaMAX with 10% FBS, 100 U/ml penicillin-streptomycin (PEST) respectively, 1× non-essential amino acids (NEAA), […] Hepes, 100 μg/ml Zeocine. Cells at about 80% confluence were washed with PBS, detached from culture flasks using 1× Trypsin/EDTA diluted in PBS, re-suspended in cell media and plated in 384-well poly-d-lysine coated cell culture plates at about 10000-15000 cells/well, in 25 μL cell media. Optionally, cryo-preserved cells (frozen and stored at −140° C. in 90% cell media and 10% DMSO) were thawed, washed and plated as above. Next the cells were incubated for 15-24 h at 37° C. and 5% CO2, after which cell medium was changed. Fresh medium containing test compound diluted ×200 from prepared compound plate was added to the cells before further incubation for 4-6 hours at 37° C. and 5% CO2. After incubation with test compound the amount of Aβ peptides, including Aβ42, Aβ40, Aβ39, Aβ38 and Aβ37, secreted to the cell medium was analyzed using the electrochemiluminescence assay technology from Meso Scale Discovery Technology, in combination with specific antibodies raised against the different Aβ peptides. Potential cytotoxic effects of the compounds were usually assayed by measuring the ATP content (ViaLight) from cell lysate.

IC50 [nM]	SMILES
10000	Cc1nccn1-c1ccc(Nc2nc3c(c(CC4CCOCC4)n2)CN(CCO)CC3)cc1 [Example 62, 2-(2-(4-(2-Methyl-1H-imidazol-1-yl)phenylamino)-4-((tetrahydro-2H-pyran-4-yl)methyl)-7,8-dihydropyrido[4,3-d]pyrimidin-6(5H)-yl)ethanol]
20	COc1cc(Nc2nc3c(c(Cc4ccccc4)n2)CN(C)CC3)ccc1-n1cnc(C)c1 [Example 68, 4-Benzyl-N-(3-methoxy-4-(4-methyl-1H-imidazol-1-yl)phenyl)-6-methyl-5,6,7,8-tetrahydropyrido[4,3-d]pyrimidin-2-amine]
158	CN1CCc2nc(Nc3ccc(-c4cnco4)cc3)nc(NC[C@@H]3CCCO3)c2C1 [Example 83, (S)-6-Methyl-N2-(4-(oxazol-5-yl)phenyl)-N4-((tetrahydrofuran-2-yl)methyl)-5,6,7,8-tetrahydropyrido[4,3-d]pyrimidine-2,4-diamine]
126	CCCN1CCc2nc(Nc3ccc(-c4cnco4)cc3)nc(N(CCO)c3ccccc3)c2C1 [Example 14, 2-((2-(4-(Oxazol-5-yl)phenylamino)-6-propyl-5,6,7,8-tetrahydropyrido[4,3-d]pyrimidin-4-yl)(phenyl)amino)ethanol]
251	CCOC(=O)N1CCc2nc(Nc3ccc(-c4cnco4)cc3)nc(N(CCO)c3ccccc3)c2C1 [Example 24, Ethyl 4-((2-hydroxyethyl)(phenyl)amino)-2-(4-(oxazol-5-yl)phenylamino)-7,8-dihydropyrido[4,3-d]pyrimidine-6(5H)-carboxylate]
1260	CS(=O)(=O)N1CCc2nc(Nc3ccc(-c4cnco4)cc3)nc(N(CCO)c3ccccc3)c2C1 [Example 21, 2-((6-(Methylsulfonyl)-2-(4-(oxazol-5-yl)phenylamino)-5,6,7,8-tetrahydropyrido[4,3-d]pyrimidin-4-yl)(phenyl)amino)ethanol]
2510	COCC(=O)N1CCc2nc(Nc3ccc(-c4cnco4)cc3)nc(N(CCO)c3ccccc3)c2C1 [Example 18, 1-(4-((2-Hydroxyethyl)(phenyl)amino)-2-(4-(oxazol-5-yl)phenylamino)-7,8-dihydropyrido[4,3-d]pyrimidin-6(5H)-yl)-2-methoxyethanone]
100	COc1cc(Nc2nc3c(c(Nc4ccccc4)n2)CNCC3)ccc1-n1cnc(C)c1 [Example 7, N2-(3-Methoxy-4-(4-methyl-1H-imidazol-1-yl)phenyl)-N4-phenyl-5,6,7,8-tetrahydropyrido[4,3-d]pyrimidine-2,4-diamine]
316	CC(=O)N1CCc2nc(Nc3ccc(-c4cnco4)cc3)nc(NC[C@@H]3CCCO3)c2C1 [Example 27, (S)-1-(2-(4-(Oxazol-5-yl)phenylamino)-4-((tetrahydrofuran-2-yl)methylamino)-7,8-dihydropyrido[4,3-d]pyrimidin-6(5H)-yl)ethanone]
63.1	COc1cc(Nc2nc3c(c(Cc4ccccc4)n2)COCC3)ccc1-n1cnc(C)c1 [Example 43, 4-Benzyl-N-(3-methoxy-4-(4-methyl-1H-imidazol-1-yl)phenyl)-7,8-dihydro-5H-pyrano[4,3-d]pyrimidin-2-amine]
631	Cc1nccn1-c1ccc(Nc2nc3c(c(Cc4ccccc4)n2)COCC3)cc1 [Example 45, 4-Benzyl-N-(4-(2-methyl-1H-imidazol-1-yl)phenyl)-7,8-dihydro-5H-pyrano[4,3-d]pyrimidin-2-amine]
79.4	COc1cc(Nc2nc3c(c(Cc4ccc(F)cc4)n2)C[S+]([O-])CC3)ccc1-n1cnc(C)c1 (stereo not shown) [Example 44, 4-(4-Fluorobenzyl)-N-[3-methoxy-4-(4-methyl-1H-imidazol-1-yl)phenyl]-7,8-dihydro-5H-thiopyrano[4,3-d]pyrimidin-2-amine 6-oxide]
251	Cc1nccn1-c1ccc(Nc2nc(CCc3cccc(F)c3)c3c(n2)CCN(CCO)C3)cc1 [Example 49, 2-(4-(3-Fluorophenethyl)-2-(4-(2-methyl-1H-imidazol-1-yl)phenylamino)-7,8-dihydropyrido[4,3-d]pyrimidin-6(5H)-yl)ethanol]
